Results from publication PMC6301713, “Zincophorin – biosynthesis in Streptomyces griseus and antibiotic properties” (GMS Infectious Diseases, 2016).
≈ marks a conversion by molar mass, not a printed value. Like-named read-outs stand apart in the source and are kept apart here.

Legend:
[1] = Cytotoxicity assay, crystal violet staining; type: cell-based, human; conditions: human
Protocol: (§1) The cytotoxicity of zincophorin, methyl zincophorin, daptomycin (Chemos GmbH, Regenstauf, Germany), and imipenem (Sigma-Aldrich GmbH, Taufkirchen, Germany) was evaluated as described recently, [20]. Briefly, serial twofold compounds concentration were prepared in Eagle’s minimum essential medium supplemented with 2 mM L-glutamine or Dulbecco’s Modified Eagle Medium (Lonza Group Ltd., Basel, Switzerland) and added to three-day-old confluent human lung carcinoma cells (A549; Institute of Molecular Virology, University of Münster, Germany) and Madin-Darby canine kidney cell (MDCK; Friedrich-Loeffler Institute, Riems, Germany) monolayers grown in 96-well plates (Greiner bio-one GmbH, Frickenhausen, Germany), respectively. […] After dye elution and optical density measurement the 50% cytotoxic concentration (CC50) was calculated.

S. pneumoniae DSM20566 [2] = tested on: S. pneumoniae DSM20566
S. pneumoniae DSM14378 [3] = tested on: S. pneumoniae DSM14378
S. pneumoniae D39 [4] = tested on: S. pneumoniae D39
[5] = tested on: S. pneumoniae clinical isolate 6937
[6] = tested on: S. pneumoniae clinical isolate 9400
S. pneumoniae DSM20566 [7] = test: microbe, parasite or virus in culture; conditions: Streptococcus pneumoniae, DSM20566, 18 h, read-out: MIC (DSM20566)
S. pneumoniae DSM14378 [8] = test: microbe, parasite or virus in culture; conditions: Streptococcus pneumoniae, DSM14378, 18 h, read-out: MIC (DSM14378)
S. pneumoniae D39 [9] = test: microbe, parasite or virus in culture; conditions: Streptococcus pneumoniae, D39, 18 h, read-out: MIC (D39)
[10] = tested on: S. pneumoniae clinical isolate 6937; test: microbe, parasite or virus in culture; conditions: Streptococcus pneumoniae, 18 h, read-out: MIC (6937)
[11] = tested on: S. pneumoniae clinical isolate 9400; test: microbe, parasite or virus in culture; conditions: Streptococcus pneumoniae, 18 h, read-out: MIC (9400)
[12] = tested on: S. pneumoniae clinical isolate 8919; test: microbe, parasite or virus in culture; conditions: Streptococcus pneumoniae, 18 h, read-out: MIC (8919)
[13] = tested on: S. pneumoniae clinical isolate 8828; test: microbe, parasite or virus in culture; conditions: Streptococcus pneumoniae, 18 h, read-out: MIC (8828)
[14] = Cytotoxicity assay, crystal violet staining; type: cell-based, canine; conditions: dog
Protocol: as §1

S. pneumoniae DSM20566 [15] = conditions: DSM20566, 18 h
S. pneumoniae DSM14378 [16] = conditions: DSM14378, 18 h
S. pneumoniae D39 [17] = conditions: D39, 18 h
[18] = tested on: S. pneumoniae clinical isolate 6937; conditions: clinical isolate 6937, 18 h
[19] = tested on: S. pneumoniae clinical isolate 9400; conditions: clinical isolate 9400, 18 h
[20] = tested on: S. pneumoniae clinical isolate 8919; conditions: clinical isolate 8919, 18 h
[21] = tested on: S. pneumoniae clinical isolate 8828; conditions: clinical isolate 8828, 18 h
[22] = tested on: S. pneumoniae clinical isolate 8919
[23] = tested on: S. pneumoniae clinical isolate 8828
Streptococcus pneumoniae = test: Antimicrobial assays, all tested S. pneumoniae strains; conditions: pneumococci; maximum tested concentration 50 µM; data not shown
[24] = tested on: Madin-Darby canine kidney cell (MDCK); test: Cytotoxicity assay, crystal violet staining; type: cell-based; conditions: MDCK cells
Protocol: as §1

[25] = tested on: human lung carcinoma cells (A549); test: Cytotoxicity assay, crystal violet staining; type: cell-based; conditions: A549 cells
Protocol: as §1

[26] = tested on: Clostridium welchii (Clostridium perfringens); conditions: cited from earlier work
[27] = A549 lung carcinoma cells (confluent monolayers), A549 cells, 72 h, maximum tested 100 µM, mean with standard deviation, read-out: 50% cytotoxic concentration (CC50), A549
[28] = reference strain DSM20566, biofilm formation inhibited ≥90%, 24 h, TSB, mean with standard deviation
[29] = reference strain DSM14378, biofilm formation inhibited ≥90%, 24 h, TSB, mean with standard deviation
[30] = reference strain D39, biofilm formation inhibited ≥90%, 24 h, TSB, mean with standard deviation
[31] = clinical isolate 6937, biofilm formation inhibited ≥90%, 24 h, TSB, mean with standard deviation
[32] = clinical isolate 9400, biofilm formation inhibited ≥90%, 24 h, TSB, mean with standard deviation
[33] = MDCK cells (confluent monolayers), MDCK cells, 72 h, maximum tested 100 µM, mean with standard deviation, read-out: 50% cytotoxic concentration (CC50), MDCK

| SMILES | CC50 at 72 h [1, 27] | MBIC (DSM20566) (S. pneumoniae DSM20566 [2]; [28]) | MBIC (DSM14378) (S. pneumoniae DSM14378 [3]; [29]) | MBIC (D39) (S. pneumoniae D39 [4]; [30]) | MBIC (6937) [5, 31] | MBIC (9400) [6, 32] | MIC (S. pneumoniae DSM20566 [7]) | MIC (S. pneumoniae DSM14378 [8]) | MIC (S. pneumoniae D39 [9]) | MIC [10] | MIC [11] | MIC [12] | MIC [13] | CC50 at 72 h [14, 33] | further results |
| --- | --- | --- | --- | --- | --- | --- | --- | --- | --- | --- | --- | --- | --- | --- | --- |
| C[C@@H](O)[C@H]1C(=O)N2C(C(=O)O)=C(SCCN=CN)C[C@H]12 [imipenem] | > 100 µM | 0.06 ± 0.03 µM | 0.19 ± 0.01 µM | 0.07 ± 0.03 µM | 0.22 ± 0.14 µM | 0.36 ± 0.02 µM | 0.03 ± 0.01 µM (≈ 0.00898 µg/mL) | 0.02 ± 0.01 µM (≈ 0.00599 µg/mL) | 0.02 µM (≈ 0.00599 µg/mL) | 0.01 µM (≈ 0.00299 µg/mL) | 0.01 ± 0.01 µM (≈ 0.00299 µg/mL) | 0.49 ± 0.17 µM (≈ 0.147 µg/mL) | 0.02 µM (≈ 0.00599 µg/mL) |  |  |
| CCCCCCCCCC(=O)N[C@@H](Cc1c[nH]c2ccccc12)C(=O)N[C@H](CC(N)=O)C(=O)N[C@@H](CC(=O)O)C(=O)N[C@@H]1C(=O)NCC(=O)N[C@@H](CCCN)C(=O)N[C@@H](CC(=O)O)C(=O)N[C@H](C)C(=O)N[C@@H](CC(=O)O)C(=O)NCC(=O)N[C@H](CO)C(=O)N[C@@H]([C@H](C)CC(=O)O)C(=O)N[C@@H](CC(=O)c2ccccc2N)C(=O)O[C@@H]1C [daptomycin] |  |  |  |  |  |  |  |  |  |  |  |  |  |  | CC50 at 72 h [14]: > 100 µM; CC50 at 72 h [1]: > 100 µM; MIC (DSM20566) (S. pneumoniae DSM20566 [15]): 1.94 ± 0.91 µM (≈ 3.14 µg/mL); MIC (DSM14378) (S. pneumoniae DSM14378 [16]): 0.54 ± 0.18 µM (≈ 0.875 µg/mL); MIC (D39) (S. pneumoniae D39 [17]): 2.80 ± 0.11 µM (≈ 4.54 µg/mL); MIC (6937) [18]: 0.48 ± 0.18 µM (≈ 0.778 µg/mL); MIC (9400) [19]: 0.96 ± 0.56 µM (≈ 1.56 µg/mL); MIC (8919) [20]: 0.31 ± 0.08 µM (≈ 0.502 µg/mL); MIC (8828) [21]: 0.86 ± 0.50 µM (≈ 1.39 µg/mL); MBIC (DSM20566) (S. pneumoniae DSM20566 [2]; DSM20566, 24 h): 1.92 ± 1.07 µM; MBIC (DSM14378) (S. pneumoniae DSM14378 [3]; DSM14378, 24 h): 1.99 ± 1.38 µM; MBIC (D39) (S. pneumoniae D39 [4]; D39, 24 h): 6.10 ± 0.79 µM; MBIC (6937) ([5]; clinical isolate 6937, 24 h): 1.66 ± 1.21 µM; MBIC (9400) ([6]; clinical isolate 9400, 24 h): 2.28 ± 1.81 µM; MBIC (8919) ([22]; clinical isolate 8919, 24 h): 0.49 ± 0.26 µM; MBIC (8828) ([23]; clinical isolate 8828, 24 h): 0.48 ± 0.21 µM |
| CCC[C@@H](C)/C=C(\C)[C@H](O)[C@H](C)/C=C/CC[C@@H](O)[C@H](C)[C@H](O)[C@H](C)[C@H](O)[C@H](C)[C@H]1O[C@H]([C@H](C)C(=O)OC)CC[C@@H]1C [zincophorin methyl ester] | > 100 µM |  |  |  |  |  |  |  |  |  |  |  |  | > 100 µM | antibacterial effect (highest concentration without effect) (Streptococcus pneumoniae): > 50 µM |
| CCCC(C)C=C(C)C(O)C(C)C=CCCC(O)C(C)C(O)C(C)C(O)C(C)C1OC(C(C)C(=O)O)CCC1C (stereo not drawn) [zincophorin] | 1.02 ± 0.63 µM | 0.17 ± 0.03 µM | 0.13 ± 0.06 µM | 0.40 ± 0.24 µM | 0.46 ± 0.25 µM | 0.36 ± 0.01 µM | 0.18 ± 0.02 µM (≈ 0.102 µg/mL) | 0.1 ± 0.05 µM (≈ 0.0569 µg/mL) | 0.21 ± 0.11 µM (≈ 0.119 µg/mL) | 0.18 µM (≈ 0.102 µg/mL) | 0.14 ± 0.07 µM (≈ 0.0796 µg/mL) | 0.09 ± 0.01 µM (≈ 0.0512 µg/mL) | 0.22 ± 0.04 µM (≈ 0.125 µg/mL) | 0.63 ± 0.27 µM | cytotoxic effects in words, MDCK [24]: strong cytotoxic effects; cytotoxic effects in words, A549 [25]: strong cytotoxic effects; MBIC (8919) ([22]; clinical isolate 8919, biofilm formation inhibited ≥90%, 24 h, TSB, mean with standard deviation): 0.15 ± 0.01 µM; MBIC (8828) ([23]; clinical isolate 8828, biofilm formation inhibited ≥90%, 24 h, TSB, mean with standard deviation): 0.28 ± 0.06 µM; activity against Clostridium welchii [26]: particularly active |
